The target of this experiment is T1, Escherichia coli SC (^EcSC) (Escherichia coli, UniProt P0A988).
T1 construct: His tag (inferred from the pET15b vector and Ni-NTA purification) (N); made in house; host or cells: E. coli
Put plainly: biochemical. The note with it: for ΔG (kcal/mol) / Kd: ITC at 298.15 K (25° C.); for Kd: Kd (nM); for ΔG (kcal mol^-1): ITC at 25° C. It counts as binding. The procedure:
The procedure has been described previously (Wolff, P.; Oliéric, V.; Briand, J. P.; Chaloin, O.; Dejaegere, A.; Dumas, P.; Ennifar, E.; Guichard, G.; Wagner, J.; Burnouf, D. Y., Structure-Based Design of Short Peptide Ligands Binding onto the E. coli Processivity Ring. J. Med. Chem. 2011, 54 (13), 4627-4637). Briefly, E.coli cells were transformed with plasmids pET15b containing the dnaN gene from E. coli and were grown in LB at 37° C. to OD 0.5, then induced by IPTG (0.1 mM) at 28° C. overnight. dnaN proteins fractions were first enriched on a Ni-NTA column, eluted with a histidine step (300 mM) and further purified on a Source Q column in buffer containing 20 mM Tris HCI pH 7.5, 0.5 mM EDTA and 10% (v/v) glycerol, using a gradient from 0 to 0.5 M NaCl. After a final ultracentrifugation (45 K, 1 h, 20° C.), soluble proteins were concentrated on a Centricon 30 K (Millipore) in the same buffer and stored at 4° C. in 2 M ammonium sulfate. Buffer exchange was performed on Centrikon 10 K at 4° C. before use and protein quality was assessed by DLS.
ITC experiments were performed using an iTC200 or a PEAQ-ITC instrument (Microcal Malvern Panalytical). Peptides (300 or 600 µM) were titrated at 25° C. by sequential injections (usually 2 µl each) into an SC solution (30 or 60 µM). Data were corrected for heat of injection by subtracting the signal of the titration of peptides into proteiN-free buffer solution (Hepes 10 mM pH 7.4, NaCl 0.15 M, EDTA 3 mM). Each titration was performed at least twice. Analyses of experimental data were performed following a classical treatment with the AFFINImeter software (https://www.affinimeter.com; S4S, Santiago de Compostela, Spain). In addition, kinetic information was obtained in some cases with kinITC as implemented in the software AFFINImeter.
All newly synthesized peptides were tested for their interaction with ^EcSC by ITC at 25° C. As a general rule, all thermodynamic profiles reveal an exothermic interaction, and a non-favorable entropic component. The resulting negative Gibb’s free energies characterize a spontaneous interaction. The analysis of raw data by the Affinimeter® software also gave access to kinetics rate constant of the interaction.

The values that follow come from US20230312646A1, “ANTIBACTERIAL PEPTIDES” (priority 2020, published 2023).

Read-outs that look alike come from different tables or passages of the source. Numbered stars: 1 amine (or outer) side, 2 acyl side, 3 side chain; on linkers, the order of the positions; unused ones are H or OH. Square brackets hold non-standard residues; d marks the D form. Peptide text beside a SMILES is read from it. * marks the point of attachment. Acryloyl(3-(3-pyridyl),E) = O=C(/C=C/c1cccnc1)*; Phe(3,4-F2) = N[C@@H](Cc1ccc(F)c(F)c1)C(=O)O; Oic = O=C(O)[C@@H]1C[C@@H]2CCCC[C@@H]2N1; Cinnamoyl(4-F) = O=C(/C=C/c1ccc(F)cc1)*; Caffeoyl = O=C(/C=C/c1ccc(O)c(O)c1)*; X5 = O=C([C@@H]1CC(O)CN1[*:1])[*:2]; NMeCha = CN[C@@H](CC1CCCCC1)C(=O)O; tBuAla = CC(C)(C)C[C@H](N)C(=O)O; NMeQ = CN[C@@H](CCC(N)=O)C(=O)O; Cha = N[C@@H](CC1CCCCC1)C(=O)O; NMeD = CN[C@@H](CC(=O)O)C(=O)O; X1 = O=C(/C=C/c1ccc2ccccc2c1)*; NMeL = CN[C@@H](CC(C)C)C(=O)O; NHPhenethyl = c1ccc(CCN*)cc1; X6 = O=C(/C=C/c1ccccc1)*; Sar = CNCC(=O)O

T1 sequence (P0A988 whole entry): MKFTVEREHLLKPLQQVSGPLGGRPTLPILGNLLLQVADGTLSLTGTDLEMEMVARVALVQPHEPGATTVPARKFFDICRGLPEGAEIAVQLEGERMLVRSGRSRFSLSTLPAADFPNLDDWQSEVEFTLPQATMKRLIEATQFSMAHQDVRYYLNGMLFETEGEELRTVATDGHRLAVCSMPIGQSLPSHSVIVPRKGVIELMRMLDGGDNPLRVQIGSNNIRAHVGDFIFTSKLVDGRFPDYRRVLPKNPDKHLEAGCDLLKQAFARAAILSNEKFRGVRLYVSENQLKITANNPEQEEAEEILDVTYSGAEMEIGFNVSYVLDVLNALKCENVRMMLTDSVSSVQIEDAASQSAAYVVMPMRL

With `CC(=O)N[C@@H](CCCNC(=N)N)C(=O)N[C@@H](CCC(N)=O)C(=O)N[C@@H](CC1CCCCC1)C(=O)N[C@@H](CC(=O)O)C(=O)N[C@@H](CC(C)C)C(=O)N[C@@H](Cc1ccccc1)C(=O)O` [P12] (Ac-RQ[Cha]DLF-OH), the “ΔG (kcal/mol)” value is reported as -8.60 (± 0.08) kcal/mol and the affinity, expressed as Kd, was 498 nM. For the same molecule, the “koff, fold higher than for peptide 1 (P1)” value (compared to P1) was determined as 2.5 fold. Besides, under “read-out: kon (M^-1.s^-1)”, the kon was 37000 M⁻¹ s⁻¹.
For `CC(=O)N[C@@H](CCC(N)=O)C(=O)N[C@@H](CC1CCCCC1)C(=O)N(C)[C@@H](CC(=O)O)C(=O)N[C@@H](CC(C)C)C(=O)N[C@@H](Cc1ccc(F)c(F)c1)C(=O)O` [P40] (Ac-Q[Cha][NMeD]L[Phe(3,4-F2)]-OH), the “ΔG (kcal mol^-1)” value is given as -9.3 (± 0.02) kcal mol^-1 and binding was characterised by a dissociation constant (Kd) of 148 nM. The kon (read-out: kon (M^-1 s^-1)) is 56000 M⁻¹ s⁻¹.
`CC(C)C[C@H](NC(=O)[C@@H]1CCCN1C(=O)[C@H](CC(C)C)NC(=O)[C@H](CC(=O)O)NC(=O)[C@H](CC1CCCCC1)NC(=O)[C@H](CCC(N)=O)NC(=O)/C=C/c1ccccc1)C(=O)O` [P43] (X6-Q[Cha]DLPL-OH): the Kd turned out to be 132 nM. Also, the kon (read-out: kon (M^-1 s^-1)) is 60000 M⁻¹ s⁻¹.
As for `CC(=O)N[C@@H](CCC(N)=O)C(=O)N[C@@H](CC1CCCCC1)C(=O)N[C@@H](CC(=O)O)C(=O)N[C@@H](CC(C)C)C(=O)NCCc1ccccc1` [P23] (Ac-Q[Cha]DL-NHPhenethyl), the “ΔG (kcal/mol)” value is -8.2 (± 0.05) kcal/mol and binding was characterised by a dissociation constant (Kd) of 922 nM. The kon (read-out: kon (M^-1.s^-1)) was 19000 M⁻¹ s⁻¹.
Regarding `CC(C)C[C@H](NC(=O)[C@H](CC(=O)O)N(C)C(=O)[C@H](CC1CCCCC1)NC(=O)[C@H](CCC(N)=O)NC(=O)/C=C/c1cccnc1)C(=O)N1CCC[C@H]1C(=O)N[C@@H](Cc1ccccc1)C(=O)O` [P46] ({Acryloyl(3-(3-pyridyl),E)}-Q[Cha][NMeD]LPF-OH), the “ΔG (kcal mol^-1)” value is given as -10.2 (± 0.1) kcal mol^-1 and the Kd was 36 nM. In addition, the kon (read-out: kon (M^-1 s^-1)) was found to be 140000 M⁻¹ s⁻¹.
Take `CC(=O)N[C@@H](CCC(N)=O)C(=O)N[C@@H](CC1CCCCC1)C(=O)N[C@@H](CC(=O)O)C(=O)N[C@@H](CC(C)C)C(=O)N[C@@H](Cc1ccccc1)C(N)=O` [P26] (Ac-Q[Cha]DLF-NH2): the “ΔG (kcal/mol)” value is given as -9.0 (± 0.1) kcal/mol and the affinity, expressed as Kd, was 268 nM. The kon (read-out: kon (M^-1.s^-1)) was 33000 M⁻¹ s⁻¹.
Molecule `CC(C)C[C@H](NC(=O)[C@H](CC(=O)O)NC(=O)[C@H](CC1CCCCC1)NC(=O)[C@H](CCC(N)=O)NC(=O)/C=C/c1ccc(O)c(O)c1)C(=O)N[C@@H](Cc1ccccc1)C(=O)O` [P21] (Caffeoyl-Q[Cha]DLF-OH) returned a Kd of 99 nM. In addition, the kon (read-out: kon (M^-1.s^-1)) was found to be 46000 M⁻¹ s⁻¹.
The like results for `CC(C)C[C@H](NC(=O)[C@H](CC(=O)O)NC(=O)[C@H](CC1CCCCC1)NC(=O)[C@H](CCC(N)=O)NC(=O)/C=C/c1ccc2ccccc2c1)C(=O)N[C@@H](Cc1ccccc1)C(=O)O` [P20] (X1-Q[Cha]DLF-OH) were, in that order, 89 nM and 65000 M⁻¹ s⁻¹.
`CC(=O)N[C@@H](CCC(N)=O)C(=O)N[C@@H](CC1CCCCC1)C(=O)N[C@@H](CC(=O)O)C(=O)N[C@@H](CC(C)C)C(=O)NCC(=O)N[C@@H](CC(C)(C)C)C(=O)O` [P28] (Ac-Q[Cha]DLG[tBuAla]-OH): the “ΔG (kcal/mol)” value was -7.60 (± 0.06) kcal/mol and the Kd amounted to 2690 nM. Where the note is “read-out: kon (M^-1.s^-1)”, the kon was 11000 M⁻¹ s⁻¹.
On to `CC(C)C[C@H](NC(=O)[C@@H]1CCCN1C(=O)[C@H](CC(C)C)NC(=O)[C@H](CC(=O)O)N(C)C(=O)[C@H](CC1CCCCC1)NC(=O)[C@H](CCC(N)=O)NC(=O)/C=C/c1cccnc1)C(=O)O` [P44] ({Acryloyl(3-(3-pyridyl),E)}-Q[Cha][NMeD]LPL-OH), for which the “ΔG (kcal mol^-1)” value was -9.2 (± 0.1) kcal mol^-1 and the Kd was determined as 177 nM. In addition, the kon (read-out: kon (M^-1 s^-1)) was 63000 M⁻¹ s⁻¹.
With `CC(C)C[C@H](NC(=O)[C@H](CC(=O)O)N(C)C(=O)[C@H](CC1CCCCC1)NC(=O)[C@H](CCC(N)=O)NC(=O)/C=C/c1cccnc1)C(=O)N1[C@H](C(=O)N[C@@H](Cc2ccccc2)C(=O)O)C[C@@H]2CCCC[C@@H]21` [P49] ({Acryloyl(3-(3-pyridyl),E)}-Q[Cha][NMeD]L[Oic]F-OH), the “ΔG (kcal mol^-1)” value is given as -9.5 (± 0.1) kcal mol^-1 and binding was put at a Kd of 118 nM. Besides, the kon (read-out: kon (M^-1 s^-1)) was found to be 47000 M⁻¹ s⁻¹.
Take `CC(=O)N[C@@H](CCC(N)=O)C(=O)N(C)[C@@H](CC1CCCCC1)C(=O)N[C@@H](CC(=O)O)C(=O)N[C@@H](CC(C)C)C(=O)N[C@@H](Cc1ccccc1)C(=O)O` [P3] (Ac-Q[NMeCha]DLF-OH): the “ΔG (kcal/mol)” value is listed as -6.0 (± 0.1) kcal/mol and the Kd was above 1000 nM.
In the case of `CC(C)C[C@H](NC(=O)[C@H](CC(=O)O)N(C)C(=O)[C@H](CC1CCCCC1)NC(=O)[C@H](CCC(N)=O)NC(=O)/C=C/c1ccc(F)cc1)C(=O)N[C@@H](Cc1ccc(F)c(F)c1)C(=O)O` [P41] ({Cinnamoyl(4-F)}-Q[Cha][NMeD]L[Phe(3,4-F2)]-OH), the Kd is 99 nM. In addition, the kon (read-out: kon (M^-1 s^-1)) is 51000 M⁻¹ s⁻¹.
For `CC(=O)N(C)[C@@H](CCC(N)=O)C(=O)N[C@@H](CC1CCCCC1)C(=O)N[C@@H](CC(=O)O)C(=O)N[C@@H](CC(C)C)C(=O)N[C@@H](Cc1ccccc1)C(=O)O` [P2] (Ac-[NMeQ][Cha]DLF-OH), the “ΔG (kcal/mol)” value was -7.7 (± 0.2) kcal/mol and the dissociation constant (Kd) is above 1000 nM. The kon (read-out: kon (M^-1.s^-1)) is 21000 M⁻¹ s⁻¹.
As to `CC(=O)N[C@@H](CCC(N)=O)C(=O)N[C@@H](CC1CCCCC1)C(=O)N[C@H](C(=O)N[C@@H](CC(C)C)C(=O)N[C@@H](Cc1ccccc1)C(=O)O)[C@@H](C)O` [Asp to Thr substitution] (Ac-Q[Cha]TLF-OH), the “ΔG (kcal/mol)” value is -9.2 (+/- 0.1) kcal/mol and the Kd came out at 180 nM.
Take `CC(=O)N[C@@H](CCC(N)=O)C(=O)N[C@@H](CC1CCCCC1)C(=O)N[C@@H](CC(=O)O)C(=O)N(C)[C@@H](CC(C)C)C(=O)N[C@@H](Cc1ccccc1)C(=O)O` [P6] (Ac-Q[Cha]D[NMeL]F-OH): the “ΔG (kcal/mol)” value is recorded as -5.2 (± 0.2) kcal/mol and the equilibrium dissociation constant (Kd) was above 1000 nM.
For `CC(=O)N[C@@H](CCC(N)=O)C(=O)N[C@@H](CC1CCCCC1)C(=O)N[C@@H](CC(=O)O)C(=O)N[C@@H](CC(C)C)C(=O)N1CC(O)C[C@H]1C(=O)N[C@@H](CC(C)C)C(=O)O` (stereo partly drawn) [P33] (Ac-Q[Cha]DL[X5]L-OH), the “ΔG (kcal/mol)” value was -8.8 (± 0.2) kcal/mol and the Kd stood at 369 nM. In addition, the kon (read-out: kon (M^-1.s^-1)) is 44000 M⁻¹ s⁻¹.
The like results for `CC(=O)N[C@@H](CCC(N)=O)C(=O)N[C@@H](CC1CCCCC1)C(=O)N[C@@H](CC(=O)O)C(=O)N[C@@H](CC(C)C)C(=O)NCC(=O)N[C@@H](CC(C)C)C(=O)O` [P27] (Ac-Q[Cha]DLGL-OH) were, in that order, -8.4 (± 0.1) kcal/mol, 682 nM and 26000 M⁻¹ s⁻¹.
Turning to `CC(=O)N[C@@H](CCC(N)=O)C(=O)N[C@@H](CC1CCCCC1)C(=O)N[C@@H](CC(=O)O)C(=O)N[C@@H](CC(C)C)C(=O)N(C)CC(=O)N[C@@H](CC(C)C)C(=O)O` [P30] (Ac-Q[Cha]DL[Sar]L-OH), the “ΔG (kcal/mol)” value is on record as -8.5 (± 0.2) kcal/mol and the Kd is 583 nM. Under “read-out: kon (M^-1.s^-1)”, the kon worked out at 40000 M⁻¹ s⁻¹.
For the molecule `CC(=O)N[C@@H](CCC(N)=O)C(=O)N[C@@H](CC1CCCCC1)C(=O)N(C)[C@@H](CC(=O)O)C(=O)N[C@@H](CC(C)C)C(=O)N1CCC[C@H]1C(=O)N[C@@H](CC(C)C)C(=O)O` [P42] (Ac-Q[Cha][NMeD]LPL-OH), the “ΔG (kcal mol^-1)” value is reported as -9.0 (± 0.2) kcal mol^-1 and the affinity, expressed as Kd, was 263 nM. Further, for the setting “read-out: kon (M^-1 s^-1)”, the kon worked out at 100000 M⁻¹ s⁻¹.
